Test system: healthy volunteers (bent side of the forearm)
Assay: 24 hour-occlusion patch test (Finn Chamber) of the original specimen
Type: in vivo, human
Conditions: 46 persons, 0.03 ml original specimen
Procedure: “Test Method Using Patch Test”
The test was conducted using a Finn Chamber (8 mm in diameter) with 24 hour-occlusion.
Test subjects were 46 male and female healthy volunteers (33 males and 13 females) whose ages range from 22 to 59 (average 42); 0.03 ml of the original specimen of alkylene polyglycol dineopentanoate was applied on the bent side of the forearm of the test subjects for 24 hours. The application site was secured with an elastic bandage; three hours after the removal of the bandage and the adhesive plaster the first evaluation (after-24-hours evaluation) was conducted according to the evaluation criteria of Table 1, and 24 hours later another evaluation (after-48-hours evaluation) was conducted with the same criteria.

Row | Compound | Equivocal ± (mild erythema), number of subjects (evaluation time 24 hrs) | Negative − (no reaction), number of subjects (evaluation time 24 hrs) | Positive + (Weakly positive: erythema), number of subjects (evaluation time 24 hrs) | Positive ++ (Moderately positive: erythema + edema), number of subjects (evaluation time 24 hrs) | Positive +++ (Strongly positive), number of subjects (evaluation time 24 hrs) | Positive ++++ (Strongest positive: large blister), number of subjects (evaluation time 24 hrs) | Positive ratio (evaluation time 24 hrs) | Equivocal ± (mild erythema), number of subjects (evaluation time 48 hrs) | Negative − (no reaction), number of subjects (evaluation time 48 hrs) | Positive + (Weakly positive: erythema), number of subjects (evaluation time 48 hrs) | Positive ++ (Moderately positive: erythema + edema), number of subjects (evaluation time 48 hrs) | Positive +++ (Strongly positive), number of subjects (evaluation time 48 hrs) | Positive ++++ (Strongest positive: large blister), number of subjects (evaluation time 48 hrs) | Positive ratio (evaluation time 48 hrs)
1 | CC(COC(=O)C(C)(C)C)OCC(C)OCC(C)OC(=O)C(C)(C)C (stereo not shown) [Example 1, Tripropyleneglycol dineopentanoate] | 0 | 46 | 0 | 0 | 0 | 0 | 0% | 0 | 46 | 0 | 0 | 0 | 0 | 0%
2 | CC(COC(=O)C(C)(C)C)OCC(C)OCC(C)OCC(C)OC(=O)C(C)(C)C (stereo not shown) [Example 3, Tetrapropyleneglycol dineopentanoate] | 0 | 46 | 0 | 0 | 0 | 0 | 0% | 0 | 46 | 0 | 0 | 0 | 0 | 0%
3 | CC(COC(=O)C(C)(C)C)OCC(C)OC(=O)C(C)(C)C (stereo not shown) [Example 2, Dipropyleneglycol dineopentanoate] | 0 | 46 | 0 | 0 | 0 | 0 | 0% | 0 | 46 | 0 | 0 | 0 | 0 | 0%
4 | CCCCCCCCC(=O)OCCCCCCC(C)C [compound 3, Isononyl nonanoate, reference compound] | 5 | 31 | 5 | 4 | 1 | 0 | 22% | 5 | 32 | 4 | 5 | 0 | 0 | 20%
5 | Isocetyl oleate [compound 1, reference compound] | 3 | 39 | 2 | 2 | 0 | 0 | 8.7% | 2 | 40 | 4 | 0 | 0 | 0 | 8.7%
